Three molecules from patent publication US4405743A, “Pyrazolylpyrimidine derivatives” (Hokko Chemical Industry Co., Ltd., priority 1981, dated 1983) can be followed below.

Values after ≈ are worked out from the molar mass of the structure shown. Where two headings read alike, the source gives them in different places.

The test system of data set [1] is Pyricularia oryzae. Format: in vivo, Pyricularia oryzae on rice plant (variety: Asahi). The note with it: rice blast, prevention; 200 ppm; 5 days after inoculation.
For data set [2], the system named is Pyricularia oryzae. Format: in vivo, Pyricularia oryzae on rice plant (variety: Asahi). The note with it: rice blast, curative treatment; sprayed liquid 200 ppm; 5 days after spraying.
The subject of data set [3] is Cochliobolus miyabeanus. Description: Effect of controlling rice brown spot, Experimental Example 3. Format: in vivo, Cochliobolus miyabeanus on rice plant (variety: Asahi). The note with it: sprayed liquid 500 ppm, 5 days after inoculation.
Data set [4] concerns Sphaerotheca friliginea. Description: Effect of controlling cucumber powdery mildew, Experimental Example 4. Format: in vivo. Particulars: sprayed liquid 200 ppm, 10 days after inoculation. As to the method: 10 ml of each of test liquids diluted to a predetermined concentration was sprayed over seedlings of a cucumber plant (variety: Sagami Hanpaku) grown up to the first leaf stage which has been soil cultured in an unglazed pot with a diameter of 9 cm in a green house. After allowing to stand overnight, the seedlings were sprayed for inoculation with a spore suspension of Sphaerotheca friliginea. Ten days after the inoculation, the rate of a lesion area (%) was checked and a control value was evaluated from the following equation. The degree of chemical injury against a cucumber plant was determined in the same manner as in Experimental Example.

Data set [5] relates to Alternaria padwikii. Description: Antimicrobial activity (mycelium growth inhibition, PDA medium). Format: cell-based. The note with it: 24° C., read-out: ED50 value. The method, then: (§1) Experimental Example 5 (Test for Antimicrobial Activity Against Various Plant Phathogenic Fungi)
(§2) 1 ml of an acetone solution of each of test compounds and 20 ml of the PDA medium (50° C.) to prepare media containing the chemical in different concentrations, followed by charging into a petri dish with a diameter of 9 cm where it was solidified flat. On the central portion of the chemical-containing medium was inoculated a fungus-containing medium a piece of ager black-containing mycelia which was obtained by punching by means of a cork borer the tip portion of mycelia of each test fungus which had been cultured in advance in the PDA medium, followed by cultivating at 24° C. Two to six days after the cultivation, the diameter of the mycelia was measured and mycelium growth inhibiting rate was calculated from a comparison with that of a non-treated plot. The mycelium growth inhibiting rate was plotted on a logarithmic probability paper to determine an ED50 value.

The subject of data set [6] is Botrytis cinerea. Described as above. Format: cell-based. The note with it: 24° C., read-out: ED50 value. The method, then: as §1, §2
Data set [7] relates to Curvularia sp. The data set is described as above. It is filed as cell-based. The note with it: 24° C., read-out: ED50 value. The method, then: as §1, §2
Data set [8] relates to Diaporthe citri. The description is as above. It is filed as cell-based. The note with it: 24° C., read-out: ED50 value. As to the method: as §1, §2
The test system of data set [9] is Endothia parasitica. Described as above. The note with it: Cryphonectria parasitica, 24° C., read-out: ED50 value. It is filed as cell-based. The method, then: as §1, §2
In data set [10] the test system is Fusarium nivale. The description is as above. Format: cell-based. Particulars: Microdochium nivale, 24° C., read-out: ED50 value. As to the method:
as §1, §2

The subject of data set [11] is Glomerella cingulata. The description is as above. It is filed as cell-based. The note with it: Colletotrichum gloeosporioides, 24° C., read-out: ED50 value. The method, then:
as §1, §2

The subject of data set [12] is Helminthosporium gramineum. The description is as above. It is filed as cell-based. The note with it: 24° C., read-out: ED50 value. As to the method:
as §1, §2

For data set [13], the system named is Mycosphaerella melonis. Described as above. Format: cell-based. Particulars: 24° C., read-out: ED50 value. As to the method:
as §1, §2

The subject of data set [14] is Pellicularia sasakii. The description is as above. Format: cell-based. The note with it: 24° C., read-out: ED50 value. The method, then:
as §1, §2

For data set [15], the system named is Penicillium digitatum. The description is as above. It is filed as cell-based. Particulars: 24° C., read-out: ED50 value. The method, then: as §1, §2
Data set [16] has as its system Phizoctonia solani. Described as above. Format: cell-based. The note with it: 24° C., read-out: ED50 value. The method, then: as §1, §2
The test system of data set [17] is Phoma lingam. The data set is described as above. Particulars: Plenodomus lingam, 24° C., read-out: ED50 value. Format: cell-based. The method, then: as §1, §2
Data set [18] relates to Sclerotinia fructigena. The description is as above. Format: cell-based. Particulars: 24° C., read-out: ED50 value. The method, then:
as §1, §2

Data set [19] deals with Sclerotinia sclerotiorum. The data set is described as above. It is filed as cell-based. Particulars: 24° C., read-out: ED50 value. As to the method: as §1, §2
The subject of data set [20] is Cochliobolus miyabeanus. Described as above. Format: cell-based. The note with it: Bipolaris oryzae, read-out: ED50 value.
The subject of data set [21] is Pyricularia oryzae. Description: microbe, parasite or virus in culture. It is filed as cell-based. Particulars: read-out: ED50 value.
For data set [22], the system named is rice plant. Particulars: blast prevention test, 200 ppm.
Data set [23] relates to rice plant. Particulars: blast curative test, 200 ppm.
The subject of data set [24] is rice plant. Particulars: in vivo.
Data set [25] concerns cucumber plant. The note with it: in vivo.

As to `Cc1cc(C)n(-c2nccc(Sc3ccccc3)n2)n1` [Compound 4], the “Control Value” in [1] was found to be 100%; in [2], 100%; in data set [3], 85%; in data set [4], 90%. In addition, the IC50 is 1.2 µg/mL (≈ 4.25 µM) in data set [5]; 6.5 µg/mL (≈ 23 µM) in data set [6]; 0.7 µg/mL (≈ 2.48 µM) in data set [7]; 2.7 µg/mL (≈ 9.56 µM) in [8]; 1.9 µg/mL (≈ 6.73 µM) in data set [9]; 5.3 µg/mL (≈ 18.8 µM) in [10]. Also, the IC50 in data set [11] came out at 4.1 µg/mL (≈ 14.5 µM); in data set [12], 2.4 µg/mL (≈ 8.5 µM); in [13], 5.2 µg/mL (≈ 18.4 µM); in [14], 1.2 µg/mL (≈ 4.25 µM); in [15], 1.3 µg/mL (≈ 4.6 µM); in data set [16], 1.1 µg/mL (≈ 3.9 µM). In addition, the IC50 in [17] is 2.1 µg/mL (≈ 7.44 µM); in [18], 0.4 µg/mL (≈ 1.42 µM); in [19], 3.2 µg/mL (≈ 11.3 µM); in data set [20], 4.6 µg/mL (≈ 16.3 µM); in [21], 0.1 µg/mL (≈ 0.354 µM). Moreover, the “Degree of chemical injury” value in data set [22], in [23], in [24] and in data set [25] was 0 throughout.

Regarding `Cc1ccc(Oc2cc(C)nc(-n3nc(C)cc3C)n2)c(C)c1` [Compound 27], the “Control Value” in data set [1] and in data set [2] was 100% throughout. The IC50 worked out at 1.9 µg/mL (≈ 6.16 µM) in data set [5]; 9.8 µg/mL (≈ 31.8 µM) in data set [6]; 1.6 µg/mL (≈ 5.19 µM) in data set [7]; 2.9 µg/mL (≈ 9.4 µM) in [8]; 6.3 µg/mL (≈ 20.4 µM) in data set [9]; 2.8 µg/mL (≈ 9.08 µM) in data set [10]. The IC50 in [11] came to 6.7 µg/mL (≈ 21.7 µM); in data set [12], 3.6 µg/mL (≈ 11.7 µM); in data set [13], 4.6 µg/mL (≈ 14.9 µM); in [14] it was 1 µg/mL (≈ 3.24 µM); in [15] it was 1.2 µg/mL (≈ 3.89 µM); in data set [16], 1.1 µg/mL (≈ 3.57 µM). Besides, the IC50 was 3.7 µg/mL (≈ 12 µM) in data set [17]; 1.4 µg/mL (≈ 4.54 µM) in data set [18]; 4.8 µg/mL (≈ 15.6 µM) in [19]; 2.2 µg/mL (≈ 7.13 µM) in data set [20]; 0.02 µg/mL (≈ 0.0649 µM) in data set [21]. The “Degree of chemical injury” value in data set [22] and in data set [23] was 0 throughout.

Take `CCOc1nc(-n2nc(C)cc2C)ncc1C` [Compound 32]: the “Control Value” in data set [1] turned out to be 100%; in [2], 93%; in data set [3] it was 76%; in data set [4], 93%. In addition, the IC50 in data set [5] stood at 1.2 µg/mL (≈ 5.17 µM); in [6], 13.8 µg/mL (≈ 59.4 µM); in data set [7], 1.6 µg/mL (≈ 6.89 µM); in [8], 4 µg/mL (≈ 17.2 µM); in data set [9], 7.5 µg/mL (≈ 32.3 µM); in data set [10], 2.3 µg/mL (≈ 9.9 µM). For the same molecule, the IC50 was found to be 7 µg/mL (≈ 30.1 µM) in data set [11]; 7.5 µg/mL (≈ 32.3 µM) in data set [12]; 1.8 µg/mL (≈ 7.75 µM) in data set [13]; 1.5 µg/mL (≈ 6.46 µM) in data set [14]; 0.6 µg/mL (≈ 2.58 µM) in data set [15]; 2.4 µg/mL (≈ 10.3 µM) in data set [16]. In addition, the IC50 was found to be 5.3 µg/mL (≈ 22.8 µM) in [17]; 0.9 µg/mL (≈ 3.87 µM) in [18]; 5.5 µg/mL (≈ 23.7 µM) in data set [19]; 3.8 µg/mL (≈ 16.4 µM) in data set [20]; 0.8 µg/mL (≈ 3.44 µM) in data set [21]. For the same molecule, the “Degree of chemical injury” value in [22], in data set [23], in data set [24] and in data set [25] was 0 throughout.
